For orientation: viability means the share of living cells, or the viability signal relative to a control. In general, GI50 refers to the concentration giving 50% growth inhibition.

The source of these data is patent US20040235939A1, “Synthesis of peloruside a and analogs thereof for use as antitumor agents” (priority 2003, published 2004).

Structures are written as SMILES. Like-named read-outs stand apart in the source and are kept apart here.

Assay [1] relates to various cultured human tumor cell lines. In words: Proliferation of a panel of tumor cell lines. In kind it is cell-based. Particulars: panel: colon, pancreas, melanoma, ovarian, renal, liver, lung, breast, prostate. The method, then:
(§1) Cells were treated on Days 1, 3, 5, and 7 with 5 μL of media, vehicle, or drug. Peloruside A was resuspended in 0.1% DMSO and added to wells to a final concentration of 0.01, 0.1, 1, 10 or 100 nM. Taxol® (Sigma-Aldrich) was resuspended in 0.1% ethanol and added to cells to a final concentration of 0.1, 1, 10, 100, or 1000 nM.
(§2) The amount of surviving cells was measured using the sulforhodamine B (SRB) assay as previously described (Skehan et al., New colorimetric cytotoxicity assay for anticancer-drug screening. J. Natl. Cancer Inst., 1990. 82(13): p. 1107-12). Cells were fixed on Days 5, 7, and 9 (representing 4, 6, and 8 days of exposure to drug or control, respectively) with 50% (w/v) trichloroacetic acid for 1 hour at 4° C., rinsed thoroughly with water, and dried overnight. The dried cells were stained with 4% sulforhodamine B in 1% acetic acid, rinsed thoroughly and dried overnight. The bound dye was resuspended in 10 mM Tris and the absorbance was read at 492 nm. Percent growth inhibition (GI) was calculated as follows: %GI=(1−(absorbance sample/absorbance vehicle))×100. The absorbance value for each drug concentration and control represents the average of 6 replicates. The %GI was plotted against the log[drug] to generate the growth curves. The concentration of drug required to inhibit growth by 50% (GI50) was calculated for each time point.

The test system of a further assay is ptx22 cells. The assay is described as follows: Cell Titer-Glo cell viability, Taxol-resistant ptx22 cells. The note with it: Homo sapiens, 48 h. The protocol: (§3) These cell lines have specific amino acid mutations in tubulin that prevent Taxol®-binding. […] Synthetic (+)-Peloruside A was used for the present example.
(§4) 1A9, ptx10 and ptx22 cells were plated in 96-well plates to approximately 50% confluency. On the next day, Taxol® or Peloruside A was added to each well and incubated for 48 hours. A final concentration of 1, 2, 3, 4, 5, 8, 10, 20, 30, 50, 100, 300, 500, or 1000 nM of Taxol® was used. A final concentration of 10, 20, 30, 40, 50 or 70 nM of Peloruside A was used. Cell viability was measured using the Cell Titer-Glo Luminescent Cell Viability Assay (Promega). FIGS. 80-82 show bar graphs of cell viability at various concentrations of Peloruside A and Taxol®.

In a further assay the test system is 1A9 cells. In words: Cell Titer-Glo cell viability, parent 1A9 cells. In kind it is cell-based, human. The note with it: parental 1A9 cells, 48 hours. The method, then: as §3, §4
In general terms: ATP-based viability assays read luminescence as a measure of living cells.

For a further assay, the system named is BT-549. In words: SRB cytotoxicity assay, BT-549. The assay is classed as cell-based. Particulars: Homo sapiens. The protocol:
as §1, §2
For orientation: In SRB staining, fixed cells bind dye roughly in proportion to their protein.

Assay [2] deals with Tubulin, purified from bovine brains. In words: Tubulin polymerization in vitro. The assay is classed as biochemical. The method, then: Tubulin, purified from bovine brains and prepared in PEM-buffer (80 mM PIPES, 0.5 mM MgCl2, 1 mM EGTA, pH 6.9) was thawed under vacuum on ice. Tubulin was incubated at 37° C. until almost melted and resuspended to a final concentration of 2 mg/ml and placed on ice. Peloruside A or Taxol® was added into transparent 96-well plates (Coming Incorp. Costar) and placed on ice. GTP (Sigma) was added to a final concentration of 1 mM. The 96 well plate was warmed to 37° C. and 120 μl of tubulin solution was added into each well. The absorbance of the reaction at 340 nm over time (each 40-50 sec.) was measured on the spectrophotometer TECAN SPECTRAFluor Plus. Peloruside A or Taxol® was added to the tubulin at a final concentration of 5 or 10 μM.

In the case of `CC[C@H](/C=C(/C)C1C[C@@H](OC)CC(O)C(C)(C)C2(O)OC(C[C@@H](OC)C2O)C[C@@H](OC)[C@H](O)C(=O)O1)CO` (single isomer, unassigned; (+)) [Peloruside A, (+)-Peloruside A], the “inhibition of proliferation of tumor cell lines” value in assay [1] is “inhibited proliferation”; in assay [1] (listed as ent-40), “did inhibit the growth”. For the same molecule, in the assay with ptx22 cells (read-out: cell viability), the viability at 0.03 µM is roughly 50%. Further, in the assay on 1A9 cells, the “inhibition of cell growth (antimitotic activity)” value is “potent antimitotic activity”. Further, the 50% growth inhibitory concentration (GI50) amounted to 38.8 nM in the assay on BT-549 (BT-549, 96 h); 4.28 nM with BT-549 (BT-549, 144 h); 5.73 nM in the assay with BT-549 (BT-549, 192 h). Also, the “polymerization of tubulin dimers into microtubule polymers (microtubule-stabilizing activity)” value in assay [2] is listed as “did polymerize tubulin dimers into microtubule polymers”. The tubulin stabilization activity entry in assay [2] (5 or 10 μM, 37° C., absorbance at 340 nm) is given as “potent tubulin stabilization activity”.
Consider `CC(=O)O[C@H]1C(=O)[C@@]2(C)[C@H]([C@H](OC(=O)c3ccccc3)[C@]3(O)C[C@H](OC(=O)[C@H](O)[C@@H](NC(=O)c4ccccc4)c4ccccc4)C(C)=C1C3(C)C)[C@]1(OC(C)=O)CO[C@@H]1C[C@@H]2O` [Paclitaxel, paclitaxel, reference compound], for which the IC50 in the assay on ptx22 cells (read-out: concentration to reduce cell viability to approximately 50%) was greater than 100 nM. The concentration for 50% growth inhibition (GI50) with BT-549 (96 h, BT-549, Breast, 4 Days, read-out: GI50) is 1.76 nM; in the assay on BT-549 (144 h, BT-549, Breast, 6 Days, read-out: GI50), 1.2 nM; with BT-549 (192 h, BT-549, Breast, 8 Days, read-out: GI50), 0.18 nM.
